Test results taken from US20190151289A1, “Identification of Small Molecule Inhibitors of Jumonji AT-Rich Interactive Domain 1A (JARID1A) Histone Demethylase” (YALE UNIVERSITY, priority 2016, published 2019).
Where two headings read alike, the source gives them in different places.

Assays:
full-length FLAG-KDM5A = target: T1, full-length FLAG-KDM5A (Homo sapiens, UniProt P29375); assay: AlphaScreen KDM5A demethylation assay (bio-H3K4me3 peptide); type: biochemical; conditions: for hit in KDM5A inhibitor screen: compounds at 20 μM, hit threshold ~30% inhibition
T1 construct: Sf21 insect cells were infected with baculovirus to express full-length FLAG-KDM5A; made in house; host or cells: Sf21 insect cells (baculovirus)
Procedure: (§1) Histone demethylase assays were performed using previously described methods (Sayegh et al., 2013, J. Biol. Chem. 9408-9417), with the exception of all enzyme reactions containing 125 μM α-KG. Enzymes were used at the following approximate concentrations in validation experiments, chosen based on their activity in AlphaScreen assays: 19 nM FLAG-KDM5A, 15 nM FLAG-KDM5B, 6 nM FLAG-KDM5C, 29 nM His-FLAG-KDM6A, and 16 nM FLAG-KDM6B. 24 nM FLAG-KDM5A was used for Km determination experiments. Reactions were carried out for 1 hour, or were stopped by addition of 30 mM EDTA every 5 minutes for determining enzyme kinetics. Km values were calculated using the Michaelis-Menten non-linear regression analysis on GraphPad Prism 6.0 software. The concentration of DMSO in demethylation reactions was 0.05%. For reactions with catalase, catalase (Sigma C30) or an equal volume of dilution buffer was added to the peptide-containing buffer before addition of the demethylase. The final concentration of catalase in the reactions was 0.01 mg/ml.
(§2) The AlphaScreen general IgG (protein A) detection kit from PerkinElmer Life Sciences was used as described previously (Sayegh et al., 2013, J. Biol. Chem. 9408-9417). The luminescence emission was recorded at 570 nm using the AlphaScreen optic module on a Pherastar (BMG Labtech) or Envision (PerkinElmer Life Sciences) microplate reader.
8,861 compounds from the ChemBridge MW-Set, ChemBridge DIVERSet, MicroSource Gen-Plus, MicroSource Pure Natural Products, NIH Clinical Collection, and Enzo Epigenetics libraries were screened for inhibition of FLAG-KDM5A demethylase activity. Compounds were dissolved in DMSO and added at 20 μM to 384-well white plates (Corning 3574) containing 64 nM bio-H3K4me3 peptide in demethylase buffer prior to addition of 13 nM FLAG-KDM5A. Hits were selected at a threshold of three standard deviations (˜30% inhibition). A counter-screen was performed with the hits to eliminate any non-specific compounds. For this, 20 μM compounds were added to 64 nM bio-H3K4me2 peptide in demethylase buffer with no enzyme. Any hits that interfered with the positive signal detection were eliminated. Dose-response curves were performed on selected hits using 0.1-11 μM of compound. Further validation of top hits was performed using 5 μM of each compound or a dose-response curve using 0.05-50 μM of the compound.
Fresh compounds were ordered to confirm identity. IC50 curves were generated for YUKA1 and YUKA2 using 0.05-50 μM compound in 1 hour reactions. IC50 values were calculated by log transformation and non-linear regression log (inhibitor) versus response (three parameters) using Graphpad Prism 6.0 software. Percent activity of KDM5A was calculated for each data point by subtracting the background (average H3K4me3 signal) and dividing by the average signal for the DMSO controls. α-KG competition tests were performed using 150 nM H3K4me3 peptide and 50 μM Fe(II).
AlphaScreen technology (Perkin Elmer) was utilized to perform a screen for small molecule inhibitors of KDM5A. The assay was comprised of two steps, a demethylation reaction followed by detection of the product. A biotinylated H3K4me3 peptide was used as substrate in the demethylation reaction with KDM5A in the presence or absence of small molecule inhibitors. The presence of peptide product (H3K4me1/2) was detected using a product-specific antibody and beads. For this, acceptor beads coated in protein A bound to the antibody, which recognized the peptide product. Donor beads coated in streptavidin bound biotin on the peptide substrate. […]

[1] = system: H3K4 methylation in HeLa cells; assay: Western blot of global H3K4 methylation, HeLa; type: cell-based, human; conditions: HeLa and MCF7 cell lines, western blot
Procedure: Sf21 insect cells were cultured at 27° C. in Grace's medium (Gibco) with 10% fetal bovine serum (FBS) and 1% penicillin/streptomycin. HeLa cells were cultured in DMEM (Gibco) with 10% FBS and 1% penicillin/streptomycin. BT474, MCF7, MDA-MB-231, PC9 and ZR-75-1 cells were cultured in RPMI 1640 (Gibco) with 10% FBS and 1% penicillin/streptomycin. MCF10A cells were cultured as using previously described methods (Sayegh et al., 2013, J. Biol. Chem. 9408-9417). All human cells were cultured at 37° C. and 5% carbon dioxide. HeLa and MCF7 cell lines were authenticated using short tandem repeat profiling performed at the DNA Analysis Facility on Science Hill at Yale University. All other human cell lines used were within 10 passages after being obtained from the American Type Culture Collection.
Cells were lysed using previously described methods (Lin et al., 2011, Proc. Natl. Acad. Sci. U.S.A. 108:13379-13386). Histones were separated by centrifugation, resuspended in Laemmeli buffer, and sonicated. Protein concentration of cell lysates was measured by Bradford assay. Samples in Laemmeli buffer were boiled 10 minutes at 95° C. and loaded onto 7% (whole cell lysates) or 18% (histones) SDS-PAGE gels. Membranes were blocked in 4% non-fat milk in Tris-buffered saline with 0.05% Tween (TBS-T) and incubated with primary antibodies in the same buffer or 5% bovine serum albumin in TBS-T overnight at 4° C. Membranes were incubated with secondary anti-rabbit or anti-mouse antibodies for one hour at room temperature. Blots were visualized by Thermo Scientific Pierce ECL Western Blotting Substrate (32106) or EMD Millipore Immobilon Western Chemiluminescent HRP Substrate (WBKLS0100) on film. Signal was quantified using ImageJ software.

KDM5C = target: T2, KDM5C (Homo sapiens, UniProt P41229); assay: AlphaScreen KDM5C demethylation assay; type: biochemical
T2 construct: FLAG; made in house
Procedure: as §1, §2

[2] = inhibitors found by high throughput screening, read-out: KDM5A IC50

T1 sequence (P29375 whole entry): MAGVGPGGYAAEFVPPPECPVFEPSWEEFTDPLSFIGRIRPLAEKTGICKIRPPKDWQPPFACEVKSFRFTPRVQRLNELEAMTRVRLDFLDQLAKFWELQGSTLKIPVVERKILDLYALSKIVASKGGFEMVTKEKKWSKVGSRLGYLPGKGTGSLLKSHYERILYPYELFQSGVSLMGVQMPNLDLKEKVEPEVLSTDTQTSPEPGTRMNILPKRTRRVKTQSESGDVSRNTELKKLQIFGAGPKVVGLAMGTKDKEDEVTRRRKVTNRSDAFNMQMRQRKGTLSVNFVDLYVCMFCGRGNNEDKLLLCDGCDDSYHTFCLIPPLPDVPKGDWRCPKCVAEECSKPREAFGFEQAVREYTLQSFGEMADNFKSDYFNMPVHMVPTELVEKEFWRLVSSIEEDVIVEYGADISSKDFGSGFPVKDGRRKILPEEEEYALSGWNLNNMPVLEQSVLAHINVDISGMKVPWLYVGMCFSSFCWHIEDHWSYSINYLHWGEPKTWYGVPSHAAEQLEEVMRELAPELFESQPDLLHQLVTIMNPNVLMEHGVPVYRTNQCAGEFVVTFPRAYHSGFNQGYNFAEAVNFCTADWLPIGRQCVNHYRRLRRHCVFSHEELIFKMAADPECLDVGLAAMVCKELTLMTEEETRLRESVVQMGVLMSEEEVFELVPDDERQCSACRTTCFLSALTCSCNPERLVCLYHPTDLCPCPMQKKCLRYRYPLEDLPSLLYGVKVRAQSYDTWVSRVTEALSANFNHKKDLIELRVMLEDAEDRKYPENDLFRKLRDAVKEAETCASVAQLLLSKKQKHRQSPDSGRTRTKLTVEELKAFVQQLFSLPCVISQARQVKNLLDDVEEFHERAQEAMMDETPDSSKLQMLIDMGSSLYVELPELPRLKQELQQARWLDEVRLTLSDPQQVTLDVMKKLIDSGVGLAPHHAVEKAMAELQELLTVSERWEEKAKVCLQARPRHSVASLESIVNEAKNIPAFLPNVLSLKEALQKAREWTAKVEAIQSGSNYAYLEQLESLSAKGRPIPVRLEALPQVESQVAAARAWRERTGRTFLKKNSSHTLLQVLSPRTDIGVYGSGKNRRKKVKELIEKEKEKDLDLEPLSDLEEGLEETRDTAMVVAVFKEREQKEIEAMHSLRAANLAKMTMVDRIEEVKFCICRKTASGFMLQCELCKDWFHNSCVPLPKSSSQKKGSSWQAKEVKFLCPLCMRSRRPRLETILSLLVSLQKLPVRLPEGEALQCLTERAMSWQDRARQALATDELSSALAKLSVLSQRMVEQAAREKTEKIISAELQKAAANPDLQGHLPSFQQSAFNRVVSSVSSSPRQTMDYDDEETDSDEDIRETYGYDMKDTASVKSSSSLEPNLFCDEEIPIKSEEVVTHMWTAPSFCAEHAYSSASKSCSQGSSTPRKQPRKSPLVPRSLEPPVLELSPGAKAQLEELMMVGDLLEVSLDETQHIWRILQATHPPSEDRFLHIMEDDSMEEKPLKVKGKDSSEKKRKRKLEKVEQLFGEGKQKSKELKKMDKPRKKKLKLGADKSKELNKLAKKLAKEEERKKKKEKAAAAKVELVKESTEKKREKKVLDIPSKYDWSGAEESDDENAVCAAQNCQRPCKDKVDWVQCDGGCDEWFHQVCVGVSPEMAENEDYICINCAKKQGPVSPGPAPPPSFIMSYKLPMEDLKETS
T2 sequence (P41229 whole entry): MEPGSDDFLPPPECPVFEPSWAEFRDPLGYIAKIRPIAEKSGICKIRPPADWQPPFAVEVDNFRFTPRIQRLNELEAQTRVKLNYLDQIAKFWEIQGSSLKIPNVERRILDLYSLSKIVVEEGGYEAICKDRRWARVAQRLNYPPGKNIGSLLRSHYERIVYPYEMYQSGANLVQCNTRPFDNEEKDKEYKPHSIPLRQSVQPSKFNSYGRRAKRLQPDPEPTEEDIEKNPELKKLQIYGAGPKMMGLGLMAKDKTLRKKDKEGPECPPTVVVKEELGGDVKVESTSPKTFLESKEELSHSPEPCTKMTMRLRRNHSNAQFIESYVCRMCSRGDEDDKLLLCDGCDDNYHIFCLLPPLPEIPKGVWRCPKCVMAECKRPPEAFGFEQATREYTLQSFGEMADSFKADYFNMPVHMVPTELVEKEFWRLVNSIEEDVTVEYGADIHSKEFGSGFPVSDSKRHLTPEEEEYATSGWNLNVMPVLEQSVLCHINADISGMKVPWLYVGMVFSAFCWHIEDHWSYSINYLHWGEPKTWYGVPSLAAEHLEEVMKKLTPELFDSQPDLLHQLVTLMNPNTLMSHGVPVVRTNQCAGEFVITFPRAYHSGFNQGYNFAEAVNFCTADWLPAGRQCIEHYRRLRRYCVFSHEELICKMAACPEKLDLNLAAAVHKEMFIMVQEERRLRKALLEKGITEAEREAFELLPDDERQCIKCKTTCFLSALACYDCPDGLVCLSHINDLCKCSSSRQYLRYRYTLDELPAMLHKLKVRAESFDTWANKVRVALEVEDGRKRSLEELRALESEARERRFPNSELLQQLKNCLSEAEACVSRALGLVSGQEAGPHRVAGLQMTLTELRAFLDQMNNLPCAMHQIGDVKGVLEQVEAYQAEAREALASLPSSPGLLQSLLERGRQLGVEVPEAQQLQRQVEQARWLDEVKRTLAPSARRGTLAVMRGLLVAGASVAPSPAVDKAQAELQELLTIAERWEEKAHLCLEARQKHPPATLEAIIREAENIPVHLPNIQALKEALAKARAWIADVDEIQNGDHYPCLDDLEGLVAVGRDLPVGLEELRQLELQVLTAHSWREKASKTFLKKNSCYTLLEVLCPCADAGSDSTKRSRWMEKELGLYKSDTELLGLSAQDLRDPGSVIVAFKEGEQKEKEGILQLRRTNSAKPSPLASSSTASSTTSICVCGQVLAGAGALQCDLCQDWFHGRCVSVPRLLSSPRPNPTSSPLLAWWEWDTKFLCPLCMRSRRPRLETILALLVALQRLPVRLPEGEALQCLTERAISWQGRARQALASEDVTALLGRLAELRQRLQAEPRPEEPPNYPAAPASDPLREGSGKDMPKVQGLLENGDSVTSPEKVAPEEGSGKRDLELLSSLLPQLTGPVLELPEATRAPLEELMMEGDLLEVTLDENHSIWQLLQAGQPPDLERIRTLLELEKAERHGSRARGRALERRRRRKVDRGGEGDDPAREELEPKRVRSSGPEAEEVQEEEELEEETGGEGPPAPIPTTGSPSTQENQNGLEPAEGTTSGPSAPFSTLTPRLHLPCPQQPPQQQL

| hit in KDM5A inhibitor screen (full-length FLAG-KDM5A) | IC50 (full-length FLAG-KDM5A; [2]) [nM] | SMILES | further results |
| --- | --- | --- | --- |
| among the active hits in the screen |  | N[C@@H](Cc1ccc(O)c(O)c1)C(=O)O [levodopa, reference compound] |  |
|  | 2660 | C=CCn1c(S)nnc1CNC(=O)c1cccc(C)c1 [YUKA2, N-[(4-allyl-5-mercapto-4H-1,2,4-triazol-3-yl)methyl]-3-methylbenzamide] | mode of KDM5A inhibition with respect to Fe(II) (full-length FLAG-KDM5A): uncompetitive with respect to Fe(II); KDM5A enzyme inhibition at low Fe(II) (full-length FLAG-KDM5A; 5 μM Fe(II)): too weak to generate robust IC50 curves; effect of catalase on inhibitory potency against KDM5A (full-length FLAG-KDM5A; 0.01 mg/ml catalase): did not affect the inhibitory potency; IC50 (full-length FLAG-KDM5A; 0.05-50 μM compound, 1 hour reactions, read-out: average in vitro IC50 against KDM5A): 1320 nM; change of KDM5A IC50 with α-KG concentration (full-length FLAG-KDM5A; 16-fold range of α-KG, 150 nM H3K4me3 peptide, 50 μM Fe(II)): did not change significantly; cell activity by global H3K4 methylation changes [1]: but not YUKA2, was cell-active; fold less active against KDM5C (vs KDM5A) (KDM5C): ~5 fold |
|  | 197 | C=CCn1c(S)nnc1-c1cccnc1 [YU125526, 4-allyl-5-(pyridin-3-yl)-4H-1,2,4-triazole-3-thiol] |  |
|  | 57 | COc1cccc(Cc2nnc(S)n2-c2ccc(Cl)cc2)c1 [YU017175, 4-(4-chlorophenyl)-5-(3-methoxybenzyl)-4H-1,2,4-triazole-3-thiol] |  |
| among the active hits in the screen |  | O=C(O)c1ccnc(C(=O)O)c1 [2,4-PDCA, 2,4-pyridinedicarboxylic acid, reference compound] |  |
|  | 1760 | COc1cccc(Cc2nnc(S)n2Cc2ccco2)c1 [YU017176, 4-(furan-2-ylmethyl)-5-(3-methoxybenzyl)-4H-1,2,4-triazole-3-thiol] |  |
|  | 159 | CCn1c(S)nnc1CNC(=O)c1cccc(C)c1 [YU126648, N-((4-ethyl-5-mercapto-4H-1,2,4-triazol-3-yl)methyl)-3-methylbenzamide] |  |
| among the active hits in the screen |  | C[C@@](Cc1ccc(O)c(O)c1)(NN)C(=O)O [carbidopa, reference compound] |  |
|  | 169 | CCCCSCCc1nnc(S)n1-c1ccccc1 [YU149596, 5-(2-(butylthio)ethyl)-4-phenyl-4H-1,2,4-triazole-3-thiol] |  |
| among the active hits in the screen |  | O=C(O)/C=C/c1ccc(O)c(O)c1 [caffeic acid, reference compound] |  |
|  | 79 | Cc1cccc(-n2c(C)nnc2S)c1 [YU128402, 5-methyl-4-(m-tolyl)-4H-1,2,4-triazole-3-thiol] |  |

| SMILES | hit in KDM5A inhibitor screen (full-length FLAG-KDM5A) | IC50 (full-length FLAG-KDM5A; [2]) [nM] | further results |
| --- | --- | --- | --- |
| Cc1ccc(-n2sc3ccccc3c2=O)cc1 [PBIT, 2-4(4-methylphenyl)-1,2-benzisothiazol-3(2H)-one, reference compound] | among the active hits in the screen |  |  |
